From US20120172392A1, “AMINE-BASED AND AMIDE-BASED INHIBITORS OF SEMICARBAZIDE-SENSITIVE AMINE OXIDASE (SSAO) ENZYME ACTIVITY AND VAP-1 MEDIATED ADHESION USEFUL FOR TREATMENT OF DISEASES” (priority 2004, published 2012)
Structures can show the parent of a compound that is named as a salt.

Legend:
Sprague Dawley rats = assay: Carrageenan-induced rat paw edema; format: in vivo; conditions: 30 mg/kg p.o. one hour before carrageenan; 1-6 h
Procedure: Female Sprague Dawley rats were used and compounds of the invention were injected i.p. or dosed orally prior to carrageenan exposure. An equal volume of vehicle (PBS) was administered to the control group. Edema in the paws was induced as previously described by injecting 50 μl of a 0.5% solution of carrageenan (Type TV Lambda, Sigma) in saline with a 27-G needle s.c. in the right foot pat. (See Whiteley P. E. and Dalrymple S. A. (1998), Models of inflammation: carrageenan-induced paw edema in the rat, in Current Protocols in Pharmacology. Enna Si, Williams M, Ferkany J W, Kenaki T, Porsolt R E and Sullivan J P, eds., pp 5.4.1-5.4.3, John Wiley & Sons, New York) The size of the tested foot of each animal was measured volumetrically, before induction of edema, and at 1, 2, 3, 4, and 6 hours after carrageenan induction, to screen for compounds which inhibit the development of edema as compared to control animals.
The results of an experiment where three compounds of Example 21, Table I (LJP 1379, LJP 1383, LJP 1406) were used are shown in FIG. 2A, FIG. 2B, and FIG. 2C. […] Paw volumes were recorded at the indicated times and expressed as percent of the volume before injection (100%). […] Paw volumes were recorded at the indicated times and expressed as percent of the volume before injection (100%). […]

SSAO = target: T1, SSAO (Rattus norvegicus, UniProt O08590); assay: In vitro inhibition of SSAO activity, radiolabeled benzylamine procedure (rat lung homogenate); format: biochemical
T1 construct: SSAO activity in 100 ul of lung homogenate was determined radiochemically; from tissue; host or cells: rat lung homogenate (1000 g supernatant)
T1 sequence (O08590 1-763): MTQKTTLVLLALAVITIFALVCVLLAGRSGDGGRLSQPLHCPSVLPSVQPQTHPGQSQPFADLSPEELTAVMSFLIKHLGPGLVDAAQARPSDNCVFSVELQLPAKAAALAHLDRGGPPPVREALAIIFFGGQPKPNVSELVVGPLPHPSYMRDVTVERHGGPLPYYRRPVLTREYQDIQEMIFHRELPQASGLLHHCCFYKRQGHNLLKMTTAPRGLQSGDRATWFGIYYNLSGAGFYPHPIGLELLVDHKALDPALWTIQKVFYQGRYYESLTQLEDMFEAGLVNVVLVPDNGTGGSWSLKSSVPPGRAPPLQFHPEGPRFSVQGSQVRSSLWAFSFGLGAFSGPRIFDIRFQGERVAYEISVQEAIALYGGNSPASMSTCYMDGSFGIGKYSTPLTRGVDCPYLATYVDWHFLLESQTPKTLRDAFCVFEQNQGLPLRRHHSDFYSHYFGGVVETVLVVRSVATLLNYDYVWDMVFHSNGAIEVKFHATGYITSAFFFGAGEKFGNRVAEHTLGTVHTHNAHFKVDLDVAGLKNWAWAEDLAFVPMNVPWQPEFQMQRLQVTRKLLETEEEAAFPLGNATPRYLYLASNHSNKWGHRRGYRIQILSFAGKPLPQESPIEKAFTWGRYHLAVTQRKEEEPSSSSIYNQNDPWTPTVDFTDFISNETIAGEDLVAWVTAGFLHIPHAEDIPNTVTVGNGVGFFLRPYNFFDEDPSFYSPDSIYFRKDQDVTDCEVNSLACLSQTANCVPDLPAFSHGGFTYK

reversibility of inhibition of SSAO enzyme activity (SSAO): irreversible
Compound: NCC(=O)NCc1cc(F)cc(C(F)(F)F)c1 [LJP 1383, 2-amino-N-(3-fluoro-5-trifluoromethylbenzyl)acetamide trifluoroacetate]
paw swelling (paw volume) (Sprague Dawley rats): significantly reduced the paw swelling at all time points tested
